Source: publication PMC12892976, “Alkylation-based optimization of antifungal FPPS inhibitors yields a potent, broad-spectrum lipophilic zoledronate derivative” (mBio, 2025)
Values after ≈ are worked out from the molar mass of the structure shown.

Assays:
Format in all cases: cell-based
Cryptococcus tetragattii [1] = test: MIC broth microdilution (CLSI); details: Cryptococcus tetragattii WM779
Experimental: (§1) Antifungal susceptibility was determined by broth microdilution according to the CLSI guidelines described in M27-Ed4 ([16]).

[2] = test system: Cryptococcus deneoformans; test: MIC broth microdilution (CLSI); details: Cryptococcus deneoformans JEC21
Experimental: as §1

Fusarium oxysporum = test: MIC broth microdilution (CLSI); details: Fusarium oxysporum 07-200-3012
Experimental: as §1

Lomentospora prolificans = test: MIC broth microdilution (CLSI); details: Lomentospora prolificans 80-16-101-2445
Experimental: as §1

Pichia kudriavzevii [3] = test: MIC broth microdilution (CLSI); details: Pichia kudriavzavii ATCC 6258
Experimental: (§2) Antifungal susceptibility was determined by broth microdilution according to the CLSI guidelines described in M27-Ed4 ([16]). […] MFC was determined by back-plating drug-treated cultures from MIC broths onto SDA plates. The MFC was defined as the lowest concentration from which no colonies could be cultured.

Candida auris [4] = test: MIC broth microdilution (CLSI); details: Candida auris CDC-0384
Experimental: as §1

Candida parapsilosis = test: MIC broth microdilution (CLSI); details: Candida parapsilosis ATCC 22018
Experimental: as §2

Candida tropicalis [5] = test: MIC broth microdilution (CLSI); details: Candida tropicalis M230640
Experimental: as §1

Candida dubliniensis [6] = test: MIC broth microdilution (CLSI); details: Candida dubliniensis M230642
Experimental: as §1

Aspergillus udagawae = test: MIC broth microdilution (CLSI); details: Aspergillus udagawae 8G81
Experimental: as §1

Aspergillus felis = test: MIC broth microdilution (CLSI); details: Aspergillus felis IHE87256683D6
Experimental: as §1

Epidermophyton floccosum = test: MIC broth microdilution (CLSI); details: Epidermophyon floccosum R-113
Experimental: as §1

Paraphyton cookei = test: MIC broth microdilution (CLSI); details: Paraphyton cookei R-639
Experimental: as §1

Nannizzia nana = test: MIC broth microdilution (CLSI); details: Nannizzia nana R-133
Experimental: as §1

Mucor circinelloides = test: checkerboard drug interaction (FICI, MICc);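 also: simplified diagonal checkerboard screen pairing antifungals with FPPS inhibitors, FICI calculated under the Loewe additivity model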
Experimental: (§3) Drug interactions between antifungals and FPPS inhibitors were investigated using a simplified checkerboard diagonal screening method ([45]). […] FICIs were determined according to the Loewe additivity model ([17]).

Rhizopus oryzae = test: checkerboard drug interaction (FICI, MICc);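 also: simplified diagonal checkerboard screen pairing antifungals with FPPS inhibitors, FICI calculated under the Loewe additivity model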
Experimental: as §3

[7] = test system: Cryptococcus bacillisporus; test: checkerboard drug interaction (FICI, MICc);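 also: interaction of antifungals with FPPS inhibitors assessed by a simplified diagonal checkerboard screen, with FICI computed under the Loewe additivity model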
Experimental: as §3

Cryptococcus tetragattii [8] = test: checkerboard drug interaction (FICI, MICc);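 also: simplified diagonal checkerboard screen pairing antifungals with FPPS inhibitors, with FICI calculated under the Loewe additivity model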
Experimental: as §3

Fusarium solani = test: checkerboard drug interaction (FICI, MICc);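 also: simplified diagonal checkerboard screen pairing antifungals with FPPS inhibitors, FICI derived under the Loewe additivity model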
Experimental: as §3

Pichia kudriavzevii [9] = test: checkerboard drug interaction (FICI, MICc);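 also: antifungal plus FPPS inhibitor interactions tested in a simplified diagonal checkerboard screen, with FICI calculated under the Loewe additivity model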
Experimental: as §3

Candida auris [10] = test: checkerboard drug interaction (FICI, MICc);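 also: simplified diagonal checkerboard screen pairing antifungals with FPPS inhibitors, with FICI computed under the Loewe additivity model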
Experimental: as §3

Candida tropicalis [11] = test: checkerboard drug interaction (FICI, MICc);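 also: simplified diagonal checkerboard screen of antifungal plus FPPS inhibitor combinations, with FICI computed by the Loewe additivity model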
Experimental: as §3

Candida dubliniensis [12] = test: checkerboard drug interaction (FICI, MICc);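 also: simplified diagonal checkerboard screen pairing antifungals with FPPS inhibitors, FICI calculated under the Loewe additivity model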
Experimental: as §3

Aspergillus terreus = test: checkerboard drug interaction (FICI, MICc); details: 5FC:ZOL;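 also: simplified diagonal checkerboard screen pairing antifungals with FPPS inhibitors, FICI derived by the Loewe additivity model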
Experimental: as §3

SMILES: O=P(O)(O)C(O)(Cn1ccnc1)P(=O)(O)O [ZOL, zoledronate]
- MIC / MEC (Cryptococcus tetragattii [1]): 64 µg/mL (≈ 235 µM)
- MIC / MEC [2]: 128 µg/mL (≈ 470 µM)
- MIC / MEC (Fusarium oxysporum): >256 µg/mL
- MIC / MEC (Lomentospora prolificans): >256 µg/mL
- MIC / MEC (Pichia kudriavzevii [3]): 256 µg/mL (≈ 941 µM)
- MIC / MEC (Candida auris [4]): 128 µg/mL (≈ 470 µM)
- MIC / MEC (Candida parapsilosis): 128 µg/mL (≈ 470 µM)
- MIC / MEC (Candida tropicalis [5]): 128 µg/mL (≈ 470 µM)
- MIC / MEC (Candida dubliniensis [6]): 4 µg/mL (≈ 14.7 µM)
- MIC / MEC (Aspergillus udagawae): 256 µg/mL (≈ 941 µM)
- MIC / MEC (Aspergillus felis): >256 µg/mL
- MIC / MEC (Epidermophyton floccosum): 64 µg/mL (≈ 235 µM)
- MIC / MEC (Paraphyton cookei): 128 µg/mL (≈ 470 µM)
- MIC / MEC (Nannizzia nana): 128 µg/mL (≈ 470 µM)
- FICI (Mucor circinelloides; 5FC:ZOL): ≥4
- FICI (Mucor circinelloides; AMB:ZOL): 3
- FICI (Mucor circinelloides; CAS:ZOL): 1
- FICI (Mucor circinelloides; FLC:ZOL): 0.38
- FICI (Mucor circinelloides; ITR:ZOL): 0.25
- FICI (Mucor circinelloides; KET:ZOL): 0.75
- FICI (Mucor circinelloides; VOR:ZOL): 0.63
- bisphosphonate MICc (Mucor circinelloides; ZOL with 5FC): 64
- bisphosphonate MICc (Mucor circinelloides; ZOL with AMB): 128
- bisphosphonate MICc (Mucor circinelloides; ZOL with CAS): 32
- bisphosphonate MICc (Mucor circinelloides; ZOL with FLC): 16
- bisphosphonate MICc (Mucor circinelloides; ZOL with ITR): 8
- bisphosphonate MICc (Mucor circinelloides; ZOL with KET): 16
- bisphosphonate MICc (Mucor circinelloides; ZOL with VOR): 8
- FICI (Rhizopus oryzae; 5FC:ZOL): 3
- FICI (Rhizopus oryzae; AMB:ZOL): 1.13
- FICI (Rhizopus oryzae; CAS:ZOL): 0.63
- FICI (Rhizopus oryzae; FLC:ZOL): 1
- FICI (Rhizopus oryzae; ITR:ZOL): 1.02
- FICI (Rhizopus oryzae; KET:ZOL): 0.63
- FICI (Rhizopus oryzae; VOR:ZOL): 0.52
- bisphosphonate MICc (Rhizopus oryzae; ZOL with 5FC): 512
- bisphosphonate MICc (Rhizopus oryzae; ZOL with AMB): 64
- bisphosphonate MICc (Rhizopus oryzae; ZOL with CAS): 256
- bisphosphonate MICc (Rhizopus oryzae; ZOL with FLC): 256
- bisphosphonate MICc (Rhizopus oryzae; ZOL with ITR): 8
- bisphosphonate MICc (Rhizopus oryzae; ZOL with KET): 64
- bisphosphonate MICc (Rhizopus oryzae; ZOL with VOR): 8
- FICI ([7]; 5FC:ZOL): 1.03
- FICI ([7]; AMB:ZOL): 6
- FICI ([7]; CAS:ZOL): 1.13
- FICI ([7]; FLC:ZOL): 0.38
- FICI ([7]; ITR:ZOL): 1.29
- FICI ([7]; KET:ZOL): 1.02
- FICI ([7]; VOR:ZOL): 2.33
- bisphosphonate MICc ([7]; ZOL with 5FC): 128
- bisphosphonate MICc ([7]; ZOL with AMB): 256
- bisphosphonate MICc ([7]; ZOL with CAS): 16
- bisphosphonate MICc ([7]; ZOL with FLC): 32
- bisphosphonate MICc ([7]; ZOL with ITR): 32
- bisphosphonate MICc ([7]; ZOL with KET): 2
- bisphosphonate MICc ([7]; ZOL with VOR): 32
- FICI (Cryptococcus tetragattii [8]; 5FC:ZOL): 1.13
- FICI (Cryptococcus tetragattii [8]; AMB:ZOL): 1.25
- FICI (Cryptococcus tetragattii [8]; CAS:ZOL): 2.5
- FICI (Cryptococcus tetragattii [8]; FLC:ZOL): 0.5
- FICI (Cryptococcus tetragattii [8]; ITR:ZOL): 2.06
- FICI (Cryptococcus tetragattii [8]; KET:ZOL): 0.75
- FICI (Cryptococcus tetragattii [8]; VOR:ZOL): 1.46
- bisphosphonate MICc (Cryptococcus tetragattii [8]; ZOL with 5FC): 64
- bisphosphonate MICc (Cryptococcus tetragattii [8]; ZOL with AMB): 64
- bisphosphonate MICc (Cryptococcus tetragattii [8]; ZOL with CAS): 32
- bisphosphonate MICc (Cryptococcus tetragattii [8]; ZOL with FLC): 16
- bisphosphonate MICc (Cryptococcus tetragattii [8]; ZOL with ITR): 4
- bisphosphonate MICc (Cryptococcus tetragattii [8]; ZOL with KET): 16
- bisphosphonate MICc (Cryptococcus tetragattii [8]; ZOL with VOR): 32
- FICI (Fusarium solani; 5FC:ZOL): 3
- FICI (Fusarium solani; AMB:ZOL): 0.75
- FICI (Fusarium solani; CAS:ZOL): ≥4
- FICI (Fusarium solani; FLC:ZOL): 0.75
- FICI (Fusarium solani; ITR:ZOL): 0.38
- FICI (Fusarium solani; KET:ZOL): 0.75
- FICI (Fusarium solani; VOR:ZOL): 1.03
- bisphosphonate MICc (Fusarium solani; ZOL with 5FC): 256
- bisphosphonate MICc (Fusarium solani; ZOL with AMB): 64
- bisphosphonate MICc (Fusarium solani; ZOL with CAS): 256
- bisphosphonate MICc (Fusarium solani; ZOL with FLC): 128
- bisphosphonate MICc (Fusarium solani; ZOL with ITR): 32
- bisphosphonate MICc (Fusarium solani; ZOL with KET): 128
- bisphosphonate MICc (Fusarium solani; ZOL with VOR): 8
- FICI (Pichia kudriavzevii [9]; 5FC:ZOL): 1.13
- FICI (Pichia kudriavzevii [9]; AMB:ZOL): 0.63
- FICI (Pichia kudriavzevii [9]; CAS:ZOL): 0.56
- FICI (Pichia kudriavzevii [9]; FLC:ZOL): 0.67
- FICI (Pichia kudriavzevii [9]; ITR:ZOL): 0.5
- FICI (Pichia kudriavzevii [9]; KET:ZOL): 0.38
- FICI (Pichia kudriavzevii [9]; VOR:ZOL): 2.25
- bisphosphonate MICc (Pichia kudriavzevii [9]; ZOL with 5FC): 256
- bisphosphonate MICc (Pichia kudriavzevii [9]; ZOL with AMB): 32
- bisphosphonate MICc (Pichia kudriavzevii [9]; ZOL with CAS): 16
- bisphosphonate MICc (Pichia kudriavzevii [9]; ZOL with FLC): 128
- bisphosphonate MICc (Pichia kudriavzevii [9]; ZOL with ITR): 64
- bisphosphonate MICc (Pichia kudriavzevii [9]; ZOL with KET): 64
- bisphosphonate MICc (Pichia kudriavzevii [9]; ZOL with VOR): 64
- FICI (Candida auris [10]; 5FC:ZOL): 1.5
- FICI (Candida auris [10]; AMB:ZOL): 1.13
- FICI (Candida auris [10]; CAS:ZOL): 1.25
- FICI (Candida auris [10]; FLC:ZOL): 0.38
- FICI (Candida auris [10]; ITR:ZOL): 0.63
- FICI (Candida auris [10]; KET:ZOL): 0.5
- FICI (Candida auris [10]; VOR:ZOL): 0.63
- bisphosphonate MICc (Candida auris [10]; ZOL with 5FC): 128
- bisphosphonate MICc (Candida auris [10]; ZOL with AMB): 16
- bisphosphonate MICc (Candida auris [10]; ZOL with CAS): 32
- bisphosphonate MICc (Candida auris [10]; ZOL with FLC): 32
- bisphosphonate MICc (Candida auris [10]; ZOL with ITR): 16
- bisphosphonate MICc (Candida auris [10]; ZOL with KET): 32
- bisphosphonate MICc (Candida auris [10]; ZOL with VOR): 16
- FICI (Candida tropicalis [11]; 5FC:ZOL): 0.75
- FICI (Candida tropicalis [11]; AMB:ZOL): 2
- FICI (Candida tropicalis [11]; CAS:ZOL): 0.4
- FICI (Candida tropicalis [11]; FLC:ZOL): 0.31
- FICI (Candida tropicalis [11]; ITR:ZOL): 0.31
- FICI (Candida tropicalis [11]; KET:ZOL): 0.31
- FICI (Candida tropicalis [11]; VOR:ZOL): 0.49
- bisphosphonate MICc (Candida tropicalis [11]; ZOL with 5FC): 64
- bisphosphonate MICc (Candida tropicalis [11]; ZOL with AMB): 128
- bisphosphonate MICc (Candida tropicalis [11]; ZOL with CAS): 8
- bisphosphonate MICc (Candida tropicalis [11]; ZOL with FLC): 32
- bisphosphonate MICc (Candida tropicalis [11]; ZOL with ITR): 16
- bisphosphonate MICc (Candida tropicalis [11]; ZOL with KET): 32
- bisphosphonate MICc (Candida tropicalis [11]; ZOL with VOR): 1
- FICI (Candida dubliniensis [12]; 5FC:ZOL): 0.56
- FICI (Candida dubliniensis [12]; AMB:ZOL): 2
- FICI (Candida dubliniensis [12]; CAS:ZOL): 0.2
- FICI (Candida dubliniensis [12]; FLC:ZOL): 0.42
- FICI (Candida dubliniensis [12]; ITR:ZOL): 0.5
- FICI (Candida dubliniensis [12]; KET:ZOL): 0.38
- FICI (Candida dubliniensis [12]; VOR:ZOL): 0.46
- bisphosphonate MICc (Candida dubliniensis [12]; ZOL with 5FC): 0.25
- bisphosphonate MICc (Candida dubliniensis [12]; ZOL with AMB): 4
- bisphosphonate MICc (Candida dubliniensis [12]; ZOL with CAS): 0.125
- bisphosphonate MICc (Candida dubliniensis [12]; ZOL with FLC): 1
- bisphosphonate MICc (Candida dubliniensis [12]; ZOL with ITR): 1
- bisphosphonate MICc (Candida dubliniensis [12]; ZOL with KET): 1
- bisphosphonate MICc (Candida dubliniensis [12]; ZOL with VOR): 1
- FICI (Aspergillus terreus): 1.5
